Reference: ChEMBL document CHEMBL4052785, “Discovery of (R)-5-(benzo[d][1,3]dioxol-5-yl)-7-((1-(vinylsulfonyl)pyrrolidin-2-yl)methyl)-7H-pyrrolo[2,3-d]pyrimidin-4-amine (B6) as a potent Bmx inhibitor for the treatment of NSCLC” (Bioorg Med Chem Lett, 2017)
≈ marks a conversion by molar mass, not a printed value.

Tests used:
[1] = test system: A549; assay: Antiproliferative activity against human A549 cells harboring wild type EGFR after 72 hrs by MTT assay; type: functional, cell-based; conditions: A549, 72 h
[2] = test system: NCI-H1975; assay: Antitumor activity against human NCI-H1975 cells xenografted in nude mouse assessed as tumor growth inhibition at 25 mg/kg administered via oral gavage qd measured every 2 days up to 18 days relative to control; type: functional; conditions: read-out: TGI
[3] = test system: NCI-H1975; assay: Antiproliferative activity against human NCI-H1975 cells harboring EGFR L858R/T790M mutant after 72 hrs by MTT assay; type: functional, cell-based; conditions: NCI-H1975, 72 h
[4] = test system: HCC827; assay: Antiproliferative activity against human HCC827 cells harboring EGFR Del19 mutant after 72 hrs by MTT assay; type: functional, cell-based; conditions: HCC827, 72 h
[5] = Aqueous solubility of the compound at 1 mg; type: physicochemical

SMILES	IC50 [1] [nM]	IC50 [3] [nM]	IC50 [4] [nM]	solubility [5] [µg/mL]	inhibition in vivo at 25 mg/kg [2] [%]
C=CC(=O)N1CCC[C@@H](n2nc(-c3ccc(Oc4ccccc4)cc3)c3c(N)ncnc32)C1 [IBRUTINIB]	21800	1270	39	< 10	59.6
C=CS(=O)(=O)N1CCC[C@@H]1Cn1cc(-c2ccc(Oc3ccccc3)cc2)c2c(N)ncnc21	7440	440	504	< 10	–
C=CS(=O)(=O)N1CC[C@H](Cn2cc(-c3ccc(Oc4ccccc4)cc3)c3c(N)ncnc32)C1	13000	910	581	< 10	–

Now from value to molecule, other results behind:

IC50 [1] [nM]	IC50 [3] [nM]	IC50 [4] [nM]	solubility [5] [µg/mL]	SMILES	inhibition in vivo at 25 mg/kg [2] [%]
14200	6310	–	< 10	C=CC(=O)N1CCC(Cn2cc(-c3ccc(Oc4ccccc4)cc3)c3c(N)ncnc32)C1 (single isomer, unassigned)	–
15500	1920	–	< 10	C=CC(=O)N1CCC[C@@H]1Cn1cc(-c2ccc(Oc3ccccc3)cc2)c2c(N)ncnc21	–
1780	330	16	100 (≈ 234 µM)	C=CS(=O)(=O)N1CC[C@H](Cn2cc(-c3ccc4c(c3)OCO4)c3c(N)ncnc32)C1	–
8240	6300	–	100 (≈ 255 µM)	C=CC(=O)N1CCC(Cn2cc(-c3ccc4c(c3)OCO4)c3c(N)ncnc32)C1 (single isomer, unassigned)	–
12900	2920	–	100 (≈ 255 µM)	C=CC(=O)N1CCC[C@@H]1Cn1cc(-c2ccc3c(c2)OCO3)c2c(N)ncnc21	–
